Experimental data from patent US9730445B2, “Herbicidal compositions comprising 4-amino-3-chloro-5-fluoro-6-(4-chloro-2-fluoro-3-methoxyphenyl) pyridine-2-carboxylic acid or a derivative thereof and fungicides” (DOW AGROSCIENCES LLC, priority 2013, dated 2017).
Where “and” joins values, the source holds several entries; their conditions need not be identical. Equal entries are not always repeated.

Key:
CYPRO = test: In-water applied weed control, transplanted paddy rice (greenhouse); assay type: in vivo, Cyperus rotundus L. (purple nutsedge); details: 19 DAA
Description: Weed seeds or nutlets of the desired test plant species were planted in puddled soil (mud) prepared by mixing a shredded, non-sterilized mineral soil (50.5 percent silt, 25.5 percent clay, and 24 percent sand, with a pH of about 7.6 and an organic matter content of about 2.9 percent) and water at a 1:1 volumetric ratio. The prepared mud was dispensed in 365 mL aliquots into 16-ounce (oz.) non-perforated plastic pots with a surface area of 86.59 square centimeters (cm^2) leaving a headspace of 3 centimeters (cm) in each pot. Rice seeds were planted in Sun Gro MetroMix® 306 planting mixture, which typically has a pH of 6.0 to 6.8 and an organic matter content of about 30 percent, in plastic plug trays. Seedlings at the second or third leaf stage of growth were transplanted into 860 mL of mud contained in 32-oz. non-perforated plastic pots with a surface area of 86.59 cm^2 4 days prior to herbicide application. The paddy was created by filling the headspace of the pots with 2.5 to 3 cm of water. When required to ensure good germination and healthy plants, a fungicide treatment and/or other chemical or physical treatment was applied. The plants were grown for 4-22 days in a greenhouse with an approximate 14 hour (h) photoperiod which was maintained at about 29° C. during the day and about 26° C. during the night. Nutrients were added as Osmocote® (17:6:10, N:P:K+minor nutrients) at 2 g per cup. Water was added on a regular basis to maintain the paddy flood, and supplemental lighting was provided with overhead metal halide 1000-Watt lamps as necessary. The plants were employed for testing when they reached the first through fourth true leaf stage.
Treatments consisted of the acid or esters of 4-amino-3-chloro-5-fluoro-6-(4-chloro-2-fluoro-3-methoxy-phenyl)pyridine-2-carboxylic acid (compound A) each formulated as an SC (suspension concentrate) and various fungicidal components alone and in combination. Forms of compound A were applied on an acid equivalent basis.
Treatment requirements for each compound or fungicidal component were calculated based upon the rates being tested, the concentration of active ingredient or acid equivalent in the formulation, an application volume of 2 mL per component per pot, and an application area of 86.59 cm^2 per pot.
For formulated compounds, a measured amount was placed in an individual 100 or 200 mL glass vial and was dissolved in a volume of 1.25% (v/v) Agri-Dex® crop oil concentrate to obtain application solutions.
For technical grade compounds, a weighed amount was placed in an individual 100 to 200 mL glass vial and dissolved in a volume of acetone to obtain concentrated stock solutions.
Applications were made by injecting with a pipetter appropriate amounts of the application solutions, individually and sequentially, into the aqueous layer of the paddy. Control plants were treated in the same manner with the solvent blank. Applications were made so that all treated plant material received the same concentrations of acetone and crop oil concentrate.
The treated plants and control plants were placed in a greenhouse as described above and water was added as needed to maintain a paddy flood. After approximately 3 weeks the condition of the test plants as compared with that of the untreated plants was determined visually and scored on a scale of 0 to 100 percent where 0 corresponds to no injury or growth inhibition and 100 corresponds to complete kill.
Colby's equation was used to determine the herbicidal effects expected from the mixtures (Colby, S. R. Calculation of the synergistic and antagonistic response of herbicide combinations. Weeds 1967, 15, 20-22.).
The following equation was used to calculate the expected activity of mixtures containing two active ingredients, A and B: Expected=A+B−(A×B/100)

ECHCG = test: Postemergence foliar-applied weed control, direct-seeded rice (greenhouse); assay type: in vivo, Echinochloa crus-galli (L.) P. Beauv. (barnyardgrass)

## COc1c(Cl)ccc(-c2nc(C(=O)OCc3ccccc3)c(Cl)c(N)c2F)c1F [Compound A Benzyl Ester]
CYPRO; Compound A Benzyl Ester 8 g ae/ha
  Visual Weed Control (%) - 19 DAA CYPRO Obs: 20%
CYPRO; Compound A Benzyl Ester 16 g ae/ha
  Visual Weed Control (%) - 19 DAA CYPRO Obs: 88%
CYPRO; Compound A Benzyl Ester 32 g ae/ha
  Visual Weed Control (%) - 19 DAA CYPRO Obs: 87%
ECHCG; r9-11 ester 8/16/32 g ae/ha alone, r12-14 hexaconazole 25/50/100 g ai/ha alone, r15-23 ester 8/16/32 at each of 25, 50, 100
  Visual Weed Control (%)—21 DAA ECHCG Obs: 85% and 90% and 45%
ECHCG; r38-39 ester 8/16 g ae/ha alone, r40 isotianil 380 g ai/ha alone, r41-42 ester 8/16 + 380
  Visual Weed Control (%)—21 DAA ECHCG Obs: 45% and 85%
ECHCG; r58-60 ester 8/16/32 g ae/ha alone, r61-63 difenoconazole 50/100/200 g ai/ha alone, r64-72 ester 8/16/32 at each of 50, 100, 200
  Visual Weed Control (%) - 21 DAA ECHCG Obs: 70% and 60% and 90%
